The target of series [1] is T1, Mu-type opioid receptor (Homo sapiens, UniProt P35372). Put plainly: Agonist activity at human mu opioid receptor expressed in CHO-K1 cells coexpressing Galpha15 assessed as increase in fluorescence of [ca2+]i measured for 1.52 sec by FLIPR calcium assay. The class given is functional, cell-based.
The target in series [2] is T1, Mu-type opioid receptor. The experiment in a line: Agonist activity at human mu opioid receptor expressed in CHO-K1 cells coexpressing Galpha15 assessed as increase in fluorescence of [ca2+]i by measuring maximum efficacy measured for 1.52 sec by FLIPR calcium assay relative to control. The class given is functional, cell-based.
Series [3] relates to Mus musculus. The experiment in a line: Antinociceptive activity in C57BL/6 mouse at 252.8 microg/kg, sc measured after 5 days in presence of naltrindole by tail flick test. The format is functional, organism-based. As to conditions: dose 252.8 µg/kg, time 5.0 day. In general terms: Hot-plate and tail-flick tests time the reaction to a heat stimulus.
The test system of series [4] is Mus musculus. Put plainly: Antinociceptive activity in morphine tolerant C57BL/6 mouse at 252.8 microg/kg, sc administered twice per day for 6 days and measured after 30 min by tail flick test. As to conditions: dose 252.8 µg/kg. The format is functional, organism-based.
Series [5] addresses T1, Mu-type opioid receptor. The experiment in a line: Agonist activity at human mu opioid receptor expressed in CHO-K1 cells assessed as decrease in intracellular cAMP level measured after 1 hr by LANCE ultra cAMP assay. The format is functional, cell-based. In general terms: cAMP levels reflect the balance of adenylyl cyclase and phosphodiesterase activity.
In series [6] the test system is Mus musculus. Put plainly: Antinociceptive activity in C57BL/6 mouse assessed as drug tolerance at 252.8 microg/kg, sc administered twice per day for 6 days and measured immediately by tail flick test. The format is functional, organism-based. As to conditions: dose 252.8 µg/kg, time 6.0 day.
Series [7] has as its target T2, Delta-type opioid receptor (Homo sapiens, UniProt P41143). Put plainly: Agonist activity at human DOR receptor expressed in CHO-K1 cells assessed as decrease in intracellular cAMP level at 0.5 uM in presence of naltrindole. The format is functional, cell-based.
The target of series [8] is T2, Delta-type opioid receptor. Put plainly: Agonist activity at human DOR receptor expressed in CHO-K1 cells assessed as decrease in intracellular cAMP level measured after 1 hr by LANCE ultra cAMP assay. The class given is functional, cell-based.
Series [9] concerns the target T2, Delta-type opioid receptor. The experiment in a line: Displacement of [3H]-Diprenorphine from human DOR receptor expressed in CHO-K1 cells assessed as inhibition constant measured for 1 hr by liquid scintillation counter analysis. The class given is cell-based. A general note: Loss of bound radioactivity is the signal in a displacement assay; it reports binding, not function.

Series [10] deals with Mus musculus. Put plainly: Antinociceptive activity in thermal stimulated C57BL/6 mouse assessed as tail flick latency at 126.4 to 252.8 microg/kg, sc measured at 30 to 60 mins by tail flick test. The format is functional, organism-based. As to conditions: dose 126.4-252.8 µg/kg, time 30-60 min.
In series [11] the target is T1, Mu-type opioid receptor. Put plainly: Displacement of [3H]-Diprenorphine from human MOR receptor expressed in CHO-K1 cells assessed as inhibition constant measured for 1 hr by liquid scintillation counter analysis. The class given is cell-based.
For series [12], the target named is T3, Nociceptin receptor (Homo sapiens, UniProt P41146). Put plainly: Displacement of [3H]-Nociceptin from human NOP receptor expressed in CHO-K1 cells assessed as inhibition constant measured for 1 hr by liquid scintillation counter analysis. The class given is cell-based.
A short description of series [13]: Drug concentration in C57BL/6 mouse plasma at 2 mg/kg, sc measured for 60 min by ICP-MS analysis. The format is ADME, organism-based.
The subject of series [14] is Mus musculus. The experiment in a line: Antinociceptive activity in thermal stimulated C57BL/6 mouse at 126.4 to 252.8 microg/kg, sc measured at 30 to 180 mins by tail flick test. The class given is functional, organism-based. The settings on record: dose 126.4-252.8 µg/kg, time 30-180 min.
Series [15] has as its target T1, Mu-type opioid receptor. Put plainly: Agonist activity at human mu opioid receptor expressed in CHO-K1 cells assessed as decrease in intracellular cAMP level at 0.5 uM in presence of naltrexone. The settings on record: filed as agonist. The format is functional, cell-based.
Series [16] relates to Mus musculus. The experiment in a line: Antinociceptive activity in C57BL/6 mouse at 252.8 microg/kg, sc measured after 5 days in presence of BAN ORL 24 by tail flick test. As to conditions: dose 252.8 µg/kg, time 5.0 day. The format is functional, organism-based.
The nature of series [17]: Drug concentration in C57BL/6 mouse brain at 2 mg/kg, sc measured for 60 min by ICP-MS analysis. The settings on record: read-out: Ct. The format is ADME, organism-based.
The test system of series [18] is Mus musculus. Put plainly: Antinociceptive activity in thermal stimulated sc dosed C57BL/6 mouse measured at 30 to 180 mins by tail flick test. The class given is functional. As to conditions: time 30-180 min.
Series [19] addresses T3, Nociceptin receptor. Put plainly: Agonist activity at human NOP receptor expressed in CHO-K1 cells assessed as […] beta-arrestin 2 recruitment measured after 1.5 hrs by PathHunter assay. The format is functional, cell-based.
For series [20], the system named is Mus musculus. Put plainly: Antinociceptive activity in thermal stimulated MOR-knockout C57BL/6 mouse assessed as delay in flick tail at 252.8 microg/kg, sc measured after 30 mins by tail flick test. The format is functional, organism-based. The settings on record: dose 252.8 µg/kg.
The nature of series [21]: Drug concentration in C57BL/6 mouse brain at 2 mg/kg, sc measured for 5 min by ICP-MS analysis. The class given is ADME, organism-based. As to conditions: read-out: Ct.
In series [22] the target is T1, Mu-type opioid receptor. Put plainly: Agonist activity at human mu opioid receptor expressed in CHO-K1 cells assessed as […] beta-arrestin 2 recruitment measured after 1.5 hrs by PathHunter assay. The class given is functional, cell-based.
For series [23], the target named is T2, Delta-type opioid receptor. Put plainly: Agonist activity at human DOR receptor expressed in CHO-K1 cells assessed as […] beta-arrestin 2 recruitment measured after 1.5 hrs by PathHunter assay. The class given is functional, cell-based.
Series [24] has as its system Mus musculus. Put plainly: Antinociceptive activity in CFA-induced mechanical allodynia MOR knockout C57BL/6 mouse model at 252.8 microg/kg, sc administered twice daily pretreated with CFA for 2 days followed by compound addition and measured at 3 to 7 days by von frey test. The format is functional, organism-based. As to conditions: dose 252.8 µg/kg, time 3-7 day.

The subject of series [25] is Mus musculus. Put plainly: Induction of motivational effect in C57BL/6 mouse assessed as increase in reward behaviour at 126.4 to 252.8 microg/kg, sc administered for 4 days and measured on day 6 by CPP analysis. The class given is functional, organism-based. As to conditions: dose 126.4-252.8 µg/kg, time 6.0 day.
The test system of series [26] is Mus musculus. The experiment in a line: Antinociceptive activity in thermal stimulated C57BL/6 mouse assessed as drug tolerance at 126.4 to 252.8 microg/kg, sc administered twice per day for 5 days and measured immediately by tail flick test. The class given is functional, organism-based. The settings on record: dose 126.4-252.8 µg/kg, time 5.0 day.
The nature of series [27]: Drug concentration in C57BL/6 mouse Intestine at 2 mg/kg, sc measured for 60 min by ICP-MS analysis. The class given is ADME, organism-based. As to conditions: read-out: Ct.
For series [28], the target named is T3, Nociceptin receptor. The experiment in a line: Agonist activity at human NOP receptor expressed in CHO-K1 cells assessed as decrease in intracellular cAMP level measured after 1 hr by LANCE ultra cAMP assay. The class given is functional, cell-based.
In series [29] the target is T3, Nociceptin receptor. The experiment in a line: Potency index, ratio of Nociceptin EC50 to test compound EC50 for agonist activity at human NOP receptor expressed in CHO-K1 cells assessed as […] beta-arrestin 2 recruitment measured after 1.5 hrs by PathHunter assay. The format is functional, cell-based.
Series [30] deals with T3, Nociceptin receptor. Put plainly: Agonist activity at human NOP receptor expressed in CHO-K1 cells assessed as decrease in intracellular cAMP level at 0.5 uM in presence of BAN ORL 24. The format is functional, cell-based.
Series [31] deals with Mus musculus. The experiment in a line: Antinociceptive activity in thermal stimulated wild type C57BL/6 mouse assessed as tail flick latency at 126.4 to 252.8 microg/kg measured at 30 to 60 mins by tail flick test. The format is functional, organism-based. The settings on record: dose 126.4-252.8 µg/kg, time 30-60 min.
In series [32] the test system is Mus musculus. Put plainly: Antinociceptive activity in CFA-induced mechanical allodynia C57BL/6 mouse model at 126.4 to 252.8 microg/kg, sc pretreated with CFA for 2 days followed by compound addition and measured after 1 day by von frey test. The format is functional, organism-based. As to conditions: dose 126.4-252.8 µg/kg.
Series [33] deals with T2, Delta-type opioid receptor. The experiment in a line: Potency index, ratio of DADLE EC50 to test compound EC50 for agonist activity at human DOR receptor expressed in CHO-K1 cells assessed as […] beta-arrestin 2 recruitment measured after 1.5 hrs by PathHunter assay. The format is functional, cell-based.
A short description of series [34]: Drug concentration in C57BL/6 mouse Intestine at 2 mg/kg, sc measured for 5 min by ICP-MS analysis. The class given is ADME, organism-based. The settings on record: read-out: Ct.
Series [35] in a line: Drug concentration in C57BL/6 mouse plasma at 2 mg/kg, sc measured for 5 min by ICP-MS analysis. The class given is ADME, organism-based.

Calls of active or inactive are those of the source. The rule behind the calls is not given here.

T2 sequence (P41143 whole entry): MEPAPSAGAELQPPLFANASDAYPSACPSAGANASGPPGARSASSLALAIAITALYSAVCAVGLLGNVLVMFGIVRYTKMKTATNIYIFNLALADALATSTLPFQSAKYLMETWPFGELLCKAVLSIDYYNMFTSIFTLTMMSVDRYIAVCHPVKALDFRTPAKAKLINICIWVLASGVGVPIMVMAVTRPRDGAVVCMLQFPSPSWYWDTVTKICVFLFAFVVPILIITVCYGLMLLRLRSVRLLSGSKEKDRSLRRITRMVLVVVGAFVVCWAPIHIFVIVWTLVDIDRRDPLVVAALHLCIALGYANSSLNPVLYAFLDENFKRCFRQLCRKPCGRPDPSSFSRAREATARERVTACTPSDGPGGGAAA
T1 sequence (P35372 whole entry): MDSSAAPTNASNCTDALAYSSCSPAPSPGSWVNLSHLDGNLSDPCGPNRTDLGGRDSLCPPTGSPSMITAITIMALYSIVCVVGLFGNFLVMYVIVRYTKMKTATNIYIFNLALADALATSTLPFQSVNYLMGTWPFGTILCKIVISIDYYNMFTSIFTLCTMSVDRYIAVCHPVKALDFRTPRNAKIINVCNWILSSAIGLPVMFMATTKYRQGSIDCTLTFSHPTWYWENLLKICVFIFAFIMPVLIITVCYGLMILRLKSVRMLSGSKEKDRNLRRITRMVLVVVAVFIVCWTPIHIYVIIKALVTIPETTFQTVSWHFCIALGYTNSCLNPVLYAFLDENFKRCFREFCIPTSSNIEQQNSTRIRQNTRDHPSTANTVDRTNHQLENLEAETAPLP
T3 sequence (P41146 whole entry): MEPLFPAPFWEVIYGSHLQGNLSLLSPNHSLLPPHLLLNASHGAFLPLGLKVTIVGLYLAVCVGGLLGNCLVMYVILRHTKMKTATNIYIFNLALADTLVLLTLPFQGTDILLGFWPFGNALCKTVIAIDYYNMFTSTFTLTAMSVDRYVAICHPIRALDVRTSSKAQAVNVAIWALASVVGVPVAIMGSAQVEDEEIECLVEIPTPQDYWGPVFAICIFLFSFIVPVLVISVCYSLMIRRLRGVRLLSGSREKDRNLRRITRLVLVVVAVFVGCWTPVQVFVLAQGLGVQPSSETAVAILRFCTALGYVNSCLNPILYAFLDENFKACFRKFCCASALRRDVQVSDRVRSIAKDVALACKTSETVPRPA

In the case of `CN(C)C(CNC(=O)c1cc2ccccc2s1)c1cccs1` (stereo unspecified), the EC50 (usually the concentration that produces a half-maximal response) at Mu-type opioid receptor [1] came out at 13.6 nM. Moreover, the Emax (in general, the size of the effect at its maximum, as opposed to the concentration needed) at Mu-type opioid receptor [2] (filed as agonist) is 131%.
The like results for `CN(C)C(CNC(=O)c1cccs1)c1ccccc1Cl` (stereo unspecified) were, in that order, 400 nM and 54.5%.
For `Cc1ccc2c(Cl)c(C(=O)NCCc3ccccc3Cl)sc2c1`, the 50% effective concentration (EC50) on Mu-type opioid receptor [1] is more than 10000 nM. On Mu-type opioid receptor [2], the Emax is less than 20%.
As for `CN(C)C(CNC(=O)c1cc2ccccc2s1)c1ccc(Br)cc1` (stereo unspecified), the EC50 at Mu-type opioid receptor [1] came to 150 nM. At Mu-type opioid receptor [2] (filed as agonist), the Emax was 103%.
Take `Cc1ccc(C(CNC(=O)c2cc3ccccc3s2)N(C)C)cc1` (stereo unspecified): the result in the series with Mus musculus [3], in the series on Mus musculus [4], in the series with Mus musculus [6], in the series with Mus musculus [10], in the series on Mus musculus [14] and on Mu-type opioid receptor [15] was Active. In addition, the result in the series on Mus musculus [16], in the series on Mus musculus [20], in the series with Mus musculus [24], in the series on Mus musculus [25], with Mus musculus [26] and in the series on Mus musculus [31] was Active. Further, the result in the series on Mus musculus [32] was Active. The EC50 at Mu-type opioid receptor [5] was 0.23 nM; in series [8], 2.13 nM; at Nociceptin receptor [19] it was 44800 nM; at Mu-type opioid receptor [1] it was 8170 nM; on Mu-type opioid receptor [22] it was 30 nM; in series [23], more than 10000 nM. Also, on Nociceptin receptor [28], the EC50 amounted to 22 nM. Moreover, the result (in [7]; at Nociceptin receptor [30]) was inactive. In addition, the Ki (commonly a measure of affinity in units of concentration, obtained from inhibition or displacement) in series [9] is more than 1 nM; at Mu-type opioid receptor [11], 0.3 nM; on Nociceptin receptor [12], 650 nM. In addition, the concentration at 1 h was 252 ng/mL in [13], 2030 ng/mL in series [17] and 936 ng/mL in [27]. In the series on Mus musculus [18], the Activity entry was “Dose-Dependent Effect”. Moreover, the ED50 (as a rule, the dose at which the effect has come halfway, by size or by number of responders) with Mus musculus [18] is 127 mg/kg. Moreover, the concentration at 5 min in series [21] turned out to be 1110 ng/mL; in [34], 515 ng/mL; in series [35], 191 ng/mL. The Emax on Mu-type opioid receptor [2] (filed as agonist) was found to be 114%. For the same compound, the results for the Ratio EC50 (on Nociceptin receptor [29]; in series [33]) were 2200 and 233, respectively.
`CN(C)C(CNC(=O)c1cc2ccccc2s1)c1cccc(F)c1` (stereo unspecified): the EC50 on Mu-type opioid receptor [1] came out at 1490 nM. For the same compound, the Emax at Mu-type opioid receptor [2] (filed as agonist) turned out to be 106%.
The like results for `CN(C)C(CNC(=O)c1cc2ccccc2s1)c1ccccc1` (stereo unspecified) were, in that order, 3860 nM and 99.5%.
The like results for `Cc1ccc2c(Cl)c(C(=O)NCC(c3ccccc3)N(C)C)sc2c1` (stereo unspecified) were, in that order, 1620 nM and 73.6%.
For `Cc1ccccc1C(CNC(=O)c1cc2ccccc2s1)N(C)C` (stereo unspecified), on Mu-type opioid receptor [1], the EC50 is 6480 nM. For the same compound, at Mu-type opioid receptor [2] (filed as agonist), the Emax turned out to be 90.8%.
Taken in the same sequence, the figures for `Cc1ccc2c(Cl)c(C(=O)NCC(c3ccccc3Cl)N(C)C)sc2c1` (stereo unspecified) were 2580 nM and 55%.
Taken in the same sequence, the figures for `CN(C)C(CNC(=O)c1cc2ccccc2s1)c1ccc(Cl)cc1` (stereo unspecified) were 1260 nM and 112%.

The values are drawn from ChEMBL document CHEMBL5352416, “Benzo[b]thiophene-2-carboxamides as novel opioid receptor agonists with potent analgesic effect and reduced constipation” (Eur J Med Chem, 2022).
